# In patent publication US5219855A, “Anxiolytic drug” (Mitsubishi Kasei Corporation, priority 1988, dated 1993):
# Where a name gives a salt, the structure may show the parent alone.
# Target: T1, 5-HT1A receptor (Rattus norvegicus, UniProt P19327)
# T1 construct: a rat brain was homogenized in Tris buffer and centrifuged; from tissue; host or cells: rat brain membrane preparation
# T1 sequence (P19327 1-422): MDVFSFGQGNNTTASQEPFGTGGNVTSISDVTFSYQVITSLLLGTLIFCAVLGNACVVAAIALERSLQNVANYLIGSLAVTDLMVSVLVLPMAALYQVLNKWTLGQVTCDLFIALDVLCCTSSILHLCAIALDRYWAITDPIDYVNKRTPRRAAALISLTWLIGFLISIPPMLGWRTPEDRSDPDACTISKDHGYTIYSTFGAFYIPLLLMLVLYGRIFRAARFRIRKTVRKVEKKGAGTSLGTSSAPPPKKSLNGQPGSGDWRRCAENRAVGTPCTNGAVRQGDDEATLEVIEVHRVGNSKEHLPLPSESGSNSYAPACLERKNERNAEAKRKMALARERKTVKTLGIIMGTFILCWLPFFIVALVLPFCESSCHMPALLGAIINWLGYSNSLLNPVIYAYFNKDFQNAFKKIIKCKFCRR
# Assay: binding assay using [3H]8-OH-DPAT, rat brain membrane preparation
# Procedure: To say more exactly, a rat brain was homogenized in Tris buffer and centrifuged. The resultant sediment was rehomogenized using Tris buffer and incubated at 37° C. for 10 minutes, followed by centrifugation. The resulting deposit was homogenized in Tris buffer containing pargyline, calcium chloride and ascorbic acid and subjected to binding assay (membrane preparation).
# The assay was carried out by combining the membrane preparation with [3H]8-OH-DPAT and the test compound and then incubating at 37° C. for 10 minutes.
# Subsequently, the mixture was immediately filtered through a Whatman GF/B filter and the radio-activity remaining on the filter was measured by liquid chromatography.
# The binding capacity of the test compound to 5-HT1A receptor was expressed as Ki value calculated by the formula: [formula] wherein [L] denotes the concentration of [3H]8-OH-DPAT, kd represents the dissociation constant, and IC50 represents the concentration of the test compound required to produce a 50% inhibition of [3H]8-OH-DPAT binding.
row,Ki [nM],SMILES
1,4.7,c1ccc(N2CCN(CCCOc3ccc4c(c3)OCO4)CC2)cc1 [No. 1]
2,2.4,c1ccc(N2CCN(CCCOc3ccc4c(c3)OCO4)CC2)nc1 [No. 2]
3,10.1,c1cnc(N2CCN(CCCOc3ccc4c(c3)OCO4)CC2)nc1 [No. 3]
4,10.1,c1ccc(N2CCN(CCCCOc3ccc4c(c3)OCO4)CC2)cc1 [No. 4]
5,33.2,Fc1ccc(N2CCN(CCCCOc3ccc4c(c3)OCO4)CC2)cc1 [No. 5]
6,55.9,FC(F)(F)c1cccc(N2CCN(CCCCOc3ccc4c(c3)OCO4)CC2)c1 [No. 6]
7,5.7,COc1cc(OCCCN2CCN(c3ccccc3)CC2)cc(OC)c1OC [No. 7]
8,14.3,COc1ccc(OCCCN2CCN(c3ccccc3OC)CC2)cc1OC [No. 8]
9,25.4,O=C(CCN1CCN(c2ccccc2)CC1)Nc1ccc2c(c1)OCO2 [No. 10]
10,18,c1ccc(N2CCN(CCCNc3ccc4c(c3)OCO4)CC2)cc1 [No. 11]
11,16,Fc1ccc(N2CCN(CCCOc3ccc4c(c3)OCO4)CC2)cc1 [No. 12]
12,8,FC(F)(F)c1cccc(N2CCN(CCCOc3ccc4c(c3)OCO4)CC2)c1 [No. 13]
13,101,Cc1ccccc1N1CCN(CCCOc2ccc3c(c2)OCO3)CC1 [No. 14]
14,5.7,c1ccc(N2CCN(CCCOc3ccc4c(c3)OCCO4)CC2)cc1 [No. 15]
15,127,c1ccc(N2CCN(CCOc3ccc4c(c3)OCO4)CC2)cc1 [No. 16]
16,5.7,O=C(CCCN1CCN(c2ccccc2)CC1)c1ccc2c(c1)OCO2 [No. 17]
17,8,OC(CCCN1CCN(c2ccccc2)CC1)c1ccc2c(c1)OCO2 (stereo not shown) [No. 18]
18,16,c1ccc(N2CCN(CCCCOc3ccc4c(c3)OCCO4)CC2)cc1 [No. 19]
19,10.1,O=C(CCCCN1CCN(c2ccccc2)CC1)c1ccc2c(c1)OCO2 [No. 20]
20,71.2,c1ccc(N2CCN(CCCSc3ccc4c(c3)OCCO4)CC2)cc1 [No. 21]
21,25.4,[O-][S+](CCCN1CCN(c2ccccc2)CC1)c1ccc2c(c1)OCCCO2 (stereo not shown) [No. 22]

row,SMILES,Ki [nM]
1,"O=C1c2ccccc2S(=O)(=O)N1CCCCN1CCN(c2ncccn2)CC1 [Ipsapirone, 2-(4-(4-(2-pyrimidinyl)-1-piperazinyl)butyl)-1,2-benzisothiazol-3-(2H)one-1,1-dioxydehydrochloride, reference compound]",2.2
